Where two headings read alike, the source gives them in different places.
What was measured:
A375 Sensitive cells = experiment: Viability test, trypan blue exclusion, A375 Sensitive cells; format: cell-based, human; settings: Homo sapiens, A-375, viable cells as percentage of DMSO control
How it was run: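 A375 (B-Raf, CDKN2A, PTEN mutant) cells were exposed to compounds at 5.0 or 10 μM for 24 or 48 hr; CRO15 also at 0.5–50 μM for 48 hr or 5 μM for 2–48 hr; DMSO control. Viable cells were counted by trypan blue exclusion, as % of control. Three experiments in triplicate.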

[1] = tested on: A375 resistant melanoma cells; experiment: In vivo murine cancer model, A375 resistant xenograft; design: species or system BALB/c nu/nu (nude) mice; settings: 0.7 mg/mouse/day intraperitoneal
Experimental: Animal experiments were carried out in accordance with the Declaration of Helsinki and were approved by a local ethical committee CIEPAL (Comité Institutionnel d'Ethique Pour l'Animal de Laboratoire-Azur). Female immune-deficient BALB/c nu/nu (nude) mice were obtained at 5 weeks of age from Envigo Laboratory (Gannat, France). Nude mice were inoculated subcutaneously with A375 sensitive or resistant melanoma cells (1.0×10^6 cells/mouse). After tumor apparition (±5 days), animals received intraperitoneal injection of Labrafil (Control), PLX4032 (0.7 mg/mouse/day) or CRO15 (0.7 mg/mouse/day) dissolved in Labrafil. The growth tumor curves were determined by measuring the tumor volume using the equation V=(L*W2)/2 (V=tumor volume, W=tumor width, L=tumor length). At the end of the experiment, mice were euthanized by cervical dislocation and tumors were taken for western blot and immunofluorescence experiments (LC3, Cleaved Caspase 3). TUNEL assay was performed using the In Situ Cell Death Detection Kit (Roche, Meylan, France). The results are shown in FIGS. 3A and 3B (A375 sensitive melanoma cells), and 4B and 4C (A375 resistant melanoma cells).
In Vivo Murine Cancer Model Animal experiments were carried out in accordance with the Declaration of Helsinki and were approved by a local ethical committee CIEPAL (Comite Institutionnel d'Ethique Pour l'Animal de Laboratoire-Azur). Female immune-deficient BALB/c nu/nu (nude) mice were obtained at 5 weeks of age from Envigo Laboratory (Gannat, France). Nude mice were inoculated subcutaneously with A375 resistant melanoma cells (1.0×10^6 cells/mouse). After tumor apparition (+5 days), animals received intraperitoneal injection of Labrafil (Control), PLX4032 (0.7 mg/mouse/day) or MTF319 (0.7 mg/mouse/day) dissolved in Labrafil. The growth tumor curves were determined by measuring the tumor volume using the equation V=(L*W2)/2 (V=tumor volume, W=tumor width, L=tumor length). At the end of the experiment, mice were euthanized by cervical dislocation.

melanoma cells = settings: literature, read-out: IC50 to induce cell death; cited from earlier work
[2] = 24 h, read-out: Viab A375 5 μM/ 24 h
[3] = 48 h, read-out: Viab A375 5 μM/ 48 h
[4] = 24 h, read-out: Viab A375 10 μM/ 24 h
[5] = 48 h, read-out: Viab A375 10 μM/ 48 h

| Structure (SMILES) | viability at 5 µM (A375 Sensitive cells; [2]) [%] | viability at 5 µM (A375 Sensitive cells; [3]) [%] | viability at 10 µM (A375 Sensitive cells; [4]) [%] | viability at 10 µM (A375 Sensitive cells; [5]) [%] | tumor volume ([1]; FIG. 4B, 6A) | tumor weight ([1]; FIG. 4C, 6B) | IC50 (melanoma cells) [mM] |
| --- | --- | --- | --- | --- | --- | --- | --- |
| CCOc1cccc(-c2nc(N)nc(Nc3ccccc3SSc3ccccc3Nc3nc(N)nc(-c4cccc(OCC)c4)n3)n2)c1 [MTF 319, N2,N2′-(disulfanediylbis(2,1-phenylene))bis(6-(3-ethoxyphenyl)-1,3,5-triazine-2,4-diamine)] | 8.6 | 3.1 | 8.6 | 0.6 | decrease in tumor volume | had an effect on the tumor growth |  |
| Nc1nc(Nc2ccccc2SSc2ccccc2Nc2nc(N)nc(-c3c(Br)cncc3Br)n2)nc(-c2c(Br)cncc2Br)n1 [MTF 456, N2,N2′-(disulfanediylbis(2,1-phenylene))bis(6-(3,5-dibromopyridin-4-yl)-1,3,5-triazine-2,4-diamine)] | 66.5 | 87.5 | 52.3 | 76.1 |  |  |  |
| Nc1nc(Nc2ccccc2SSc2ccccc2Nc2nc(N)nc(-c3cc4c(cc3Br)OCO4)n2)nc(-c2cc3c(cc2Br)OCO3)n1 [MTF 458, N2,N2′-(disulfanediylbis(2,1-phenylene))bis(6-(6-bromobenzo[d][1,3]dioxol-5-yl)-1,3,5-triazine-2,4-diamine)] | 58.7 | 86.8 | 46.5 | 104 |  |  |  |
| Nc1cccc(-c2nc(N)nc(Nc3ccccc3SSc3ccccc3Nc3nc(N)nc(-c4cccc(N)c4)n3)n2)c1 [MTF 460, N2,N2′-(disulfanediylbis(2,1-phenylene))bis(6-(3-aminophenyl)-1,3,5-triazine-2,4-diamine)] | 61.9 | 69.5 | 64.5 | 38.6 |  |  |  |
| CC(=O)c1cccc(-c2nc(N)nc(Nc3ccccc3SSc3ccccc3Nc3nc(N)nc(-c4cccc(C(C)=O)c4)n3)n2)c1 [MTF 462, 1,1′-((((disulfanediylbis(2,1-phenylene))bis(azanediyl))bis(6-amino-1,3,5-triazine-4,2-diyl))bis(3,1-phenylene))bis(ethan-1-one)] | 101 | 80 | 4.8 | 44.1 |  |  |  |
| Nc1nc(Nc2ccccc2SSc2ccccc2Nc2nc(N)nc(-c3ccccc3[N+](=O)[O-])n2)nc(-c2ccccc2[N+](=O)[O-])n1 [MTF 463, N2,N2′-(disulfanediylbis(2,1-phenylene))bis(6-(2-nitrophenyl)-1,3,5-triazine-2,4-diamine)] | 80 | 74.3 | 56.1 | 43.4 |  |  |  |
| CN(C)C(=N)N=C(N)N [metformin] |  |  |  |  |  |  | 10 |

— US11440906B2, “Biguanide derivatives and their rearrangement products for use in the treatment of cancer” (CENTRE NATIONAL DE LA RECHERCHE SCIENTIFIQUE, priority 2017, dated 2022)
